Measurements taken from ChEMBL document CHEMBL1201862, “PubChem BioAssay data set” (2004).
Values belong to the compound of their own block, whether it stands above or below them. The source made the active and inactive calls.

Experiments:
Estrogen receptor beta = Estrogen receptor beta (Homo sapiens, UniProt Q92731);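 further: recombinant ER-beta bound to coactivator SRC1 peptide in presence of estradiol agonist; inhibitors block coactivator peptide binding and lower the FRET signal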
Aminopeptidase N = target: T1, Aminopeptidase N (Plasmodium falciparum FcB1/Columbia, UniProt O96935); assay: malaria alanyl aminopeptidase activity blockers – biochemical, fluorogenic H-Leu-NHMec substrate, 1536-well (AID 1445); set-up: species or system Plasmodium falciparum 3D7, 3D7
T1 sequence (O96935 whole entry): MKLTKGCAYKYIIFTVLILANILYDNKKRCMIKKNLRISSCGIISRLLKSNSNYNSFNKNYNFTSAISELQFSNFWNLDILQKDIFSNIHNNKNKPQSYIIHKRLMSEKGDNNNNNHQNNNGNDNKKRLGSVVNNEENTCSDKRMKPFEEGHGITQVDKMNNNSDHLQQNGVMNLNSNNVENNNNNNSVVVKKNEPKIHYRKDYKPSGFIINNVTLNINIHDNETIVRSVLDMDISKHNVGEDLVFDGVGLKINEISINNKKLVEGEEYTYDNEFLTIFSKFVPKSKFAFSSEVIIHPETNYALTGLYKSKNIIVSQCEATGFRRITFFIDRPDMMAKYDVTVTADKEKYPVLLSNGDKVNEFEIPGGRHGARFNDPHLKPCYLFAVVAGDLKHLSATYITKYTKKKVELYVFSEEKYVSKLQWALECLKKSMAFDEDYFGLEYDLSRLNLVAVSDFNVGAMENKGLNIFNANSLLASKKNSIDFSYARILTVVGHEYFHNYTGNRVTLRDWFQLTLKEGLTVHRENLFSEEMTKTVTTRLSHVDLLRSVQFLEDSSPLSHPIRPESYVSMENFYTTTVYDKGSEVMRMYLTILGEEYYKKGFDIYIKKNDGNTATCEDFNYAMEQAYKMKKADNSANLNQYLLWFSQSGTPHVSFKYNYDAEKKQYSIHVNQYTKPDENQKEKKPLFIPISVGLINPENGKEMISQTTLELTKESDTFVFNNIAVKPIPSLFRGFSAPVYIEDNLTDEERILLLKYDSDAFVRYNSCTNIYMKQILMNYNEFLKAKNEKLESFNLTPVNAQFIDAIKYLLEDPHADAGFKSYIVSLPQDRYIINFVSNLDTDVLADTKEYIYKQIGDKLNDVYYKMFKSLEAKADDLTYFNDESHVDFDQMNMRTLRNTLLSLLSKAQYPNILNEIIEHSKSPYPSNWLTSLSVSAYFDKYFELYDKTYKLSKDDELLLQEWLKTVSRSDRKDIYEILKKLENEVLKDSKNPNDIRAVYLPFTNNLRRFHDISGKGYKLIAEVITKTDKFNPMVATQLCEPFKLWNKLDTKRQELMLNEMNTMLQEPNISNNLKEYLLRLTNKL

Caspase-6 = target: T2, Caspase-6 (Homo sapiens, UniProt P55212); assay: inhibition of CASP6 peptide cleavage – biochemical, VEID-R110 fluorescence, cherry-pick, dose response (AID 720632)
T2 sequence (P55212 whole entry): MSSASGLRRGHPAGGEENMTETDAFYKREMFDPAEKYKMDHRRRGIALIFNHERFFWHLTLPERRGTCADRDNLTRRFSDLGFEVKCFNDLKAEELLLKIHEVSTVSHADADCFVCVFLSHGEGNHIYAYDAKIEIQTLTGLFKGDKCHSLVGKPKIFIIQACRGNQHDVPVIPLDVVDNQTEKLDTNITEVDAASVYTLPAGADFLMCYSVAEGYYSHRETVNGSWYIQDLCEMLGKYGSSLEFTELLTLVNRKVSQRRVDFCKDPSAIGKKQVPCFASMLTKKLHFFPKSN

[1] = HIV-1 Vif–A3G interaction blockers – biochemical, TR-FRET, GST-Vif 1-94, biotin-A3G peptide, dose response retest, primary screen (AID 1117319); type: functional;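 further: TR-FRET signal of purified GST-Vif binding a biotinylated A3G peptide; inhibitors lower the FRET signal by blocking Vif and A3G binding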
[2] = Trypanosoma cruzi growth suppression in host cells – NIH3T3 host cells, beta-gal luminescence, confirmation (AID 2044); type: functional, cell-based;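 further: intracellular parasites grown in NIH/3T3 mouse fibroblasts as host cells; luminescent beta-galactosidase reporter signal from transgenic T. cruzi replicating inside host cells; inhibitors lower the luminescence signal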
[3] = NIH3T3 cell viability loss – ATP luminescence, mouse fibroblasts, counter-screen, dose response (AID 2010); type: functional, cell-based;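 further: cells exposed to compound for about 90 hours before reading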
[4] = HPDE-C7 pancreatic duct cell viability loss – fluorescence, HTS (AID 430); type: functional, cell-based; conditions: Homo sapiens
[5] = viability of PTEN-deleted HCT116 cells – cell-based, HCT116 PTEN knockout, dose response (AID 1047); type: functional;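 further: HCT116 colon tumor cells with PTEN knocked out; cells exposed to compound for 60 hours before readout; potency for loss of cell viability measured by luminescence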
[6] = target: FAD-linked sulfhydryl oxidase ALR (Homo sapiens, UniProt P55789); assay: ALR-catalysed DTT oxidation blockers – biochemical, H2O2 detection, luminescence, cherry-pick, dose response (AID 493248)
[7] = viability of HCT116 lacking mutant beta-catenin – cell-based, human colon tumor, dose response (AID 1045); type: functional;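 further: HCT116 colon tumor cells with beta catenin knocked out; cells exposed to compound for 60 hours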
[8] = viability loss of HPDE-C7K cells – cell-based, fluorescence, HTS, primary screen (AID 431); type: functional; conditions: Homo sapiens

Chain of Estrogen receptor beta (Q92731 whole entry): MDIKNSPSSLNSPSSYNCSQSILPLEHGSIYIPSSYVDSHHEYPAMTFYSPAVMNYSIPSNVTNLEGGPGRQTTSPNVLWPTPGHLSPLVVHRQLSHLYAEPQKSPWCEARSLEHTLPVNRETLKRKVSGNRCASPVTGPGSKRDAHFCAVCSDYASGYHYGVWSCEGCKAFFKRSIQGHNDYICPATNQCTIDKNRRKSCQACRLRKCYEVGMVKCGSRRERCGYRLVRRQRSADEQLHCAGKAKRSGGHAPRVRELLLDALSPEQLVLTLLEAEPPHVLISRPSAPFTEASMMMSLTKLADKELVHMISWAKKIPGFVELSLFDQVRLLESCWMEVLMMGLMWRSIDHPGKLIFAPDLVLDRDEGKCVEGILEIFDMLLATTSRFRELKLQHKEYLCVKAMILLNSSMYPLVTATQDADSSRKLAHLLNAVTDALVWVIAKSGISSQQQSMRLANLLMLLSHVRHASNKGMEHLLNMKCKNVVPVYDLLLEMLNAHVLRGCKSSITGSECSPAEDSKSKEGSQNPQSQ
Chain of FAD-linked sulfhydryl oxidase ALR (P55789 whole entry): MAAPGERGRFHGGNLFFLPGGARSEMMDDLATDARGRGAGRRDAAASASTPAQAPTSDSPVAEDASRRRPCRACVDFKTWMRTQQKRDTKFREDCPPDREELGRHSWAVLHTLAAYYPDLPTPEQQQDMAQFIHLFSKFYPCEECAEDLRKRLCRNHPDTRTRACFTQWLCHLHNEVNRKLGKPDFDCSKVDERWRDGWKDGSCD

SMILES: O=C(O)CC1SC(N/N=C/c2ccc(-c3ccc(Cl)c([N+](=O)[O-])c3)o2)=NC1=O (stereo not given)
IC50 (Aminopeptidase N): 54.1 µM (active) | AC50 (Caspase-6): 25.1 µM (active)

SMILES: O=C(C1=C[C@H](C2CCCCC2)C[C@H](OCCCCO)O1)N1CCN(Cc2ccc3c(c2)OCO3)CC1
EC50 [2]: < 0.1 µM (active) | EC50 (cells): 0.058 µM (active) | EC50 [3]: > 60 µM (not active)

SMILES: Oc1ccc(Br)cc1-c1nc2cnccn2c1NC1CCCC1
EC50 [4]: 17.3 µM (active) | EC50 [5]: 38.9 µM (active) | AC50 [6]: 1.55 µM (active) | EC50 [7]: 36.4 µM (active) | EC50 [8]: 12.5 µM (active)

SMILES: CCc1c(C)nc(SCC(=O)CC(=O)OC(C)C)c(C#N)c1C
EC50 [4]: 7.84 µM (active) | EC50 [8]: 10.7 µM (active)

The next lines start with the values.

IC50 (Estrogen receptor beta): > 50 µM (not active)
SMILES: Cc1csc2ncc(C(=O)N3c4ccccc4CC3C)c(=O)n12 (stereo not given)

IC50 [1]: > 100 µM (active)
SMILES: CCOc1ccc(C2c3c(oc4ccccc4c3=O)C(=O)N2CCCN2CCOCC2)cc1 (stereo not given)

IC50 [1]: > 100 µM (active)
SMILES: O=C1C2CCCN2C(c2ccccc2)N1c1nccs1 (stereo not given)
